Measurements published in PMC8429728, “TNK1 is a ubiquitin-binding and 14-3-3-regulated kinase that can be targeted to block tumor growth” (Nature Communications, 2021).
Like-named read-outs stand apart in the source and are kept apart here.

Experiments:
Experiment in all cases: biochemical
Parameters in all cases: Reaction Biology 371-kinase panel at Km ATP, per cent enzyme activity relative to DMSO, single dose in duplicate
ALK4/ACVR1B = ALK4/ACVR1B (Homo sapiens, UniProt P36896); settings: duplicate measurements, Km ATP
Outline: (§1)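 First, kinases from a 371-member panel were exposed in vitro to 300 nM inhibitor. Next, % enzyme activity versus DMSO was computed. Finally, IC50s were derived by sigmoidal dose-response fitting with variable slope and a zero bottom constraint.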

CAMKK2 = CAMKK2 (Homo sapiens, UniProt Q96RR4); settings: duplicate measurements, Km ATP
Outline: as §1

CSK = CSK (Homo sapiens, UniProt P41240); settings: duplicate measurements, Km ATP
Outline: as §1

DMPK2 = biological target: T1, DMPK2 (Homo sapiens, UniProt Q6DT37); settings: duplicate measurements, Km ATP; read-out: % Enzyme Activity (relative to DMSO controls) / TP-0005801 (0.3µM) / Data 1
T1 construct: gene CDC42BPG
Outline: as §1

EPHA4 = EPHA4 (Homo sapiens, UniProt P54764); settings: duplicate measurements, Km ATP
Outline: as §1

ERK5/MAPK7 = ERK5/MAPK7 (Homo sapiens, UniProt Q13164); settings: duplicate measurements, Km ATP
Outline: as §1

IRAK4 = IRAK4 (Homo sapiens, UniProt Q9NWZ3); settings: duplicate measurements, Km ATP
Outline: as §1

JNK2 = biological target: T2, JNK2 (Homo sapiens, UniProt P45984); settings: duplicate measurements, Km ATP
T2 construct: gene MAPK9
Outline: as §1

KSR1 = KSR1 (Homo sapiens, UniProt Q8IVT5); settings: duplicate measurements, Km ATP
Outline: as §1

LCK = LCK (Homo sapiens, UniProt P06239); settings: duplicate measurements, Km ATP
Outline: as §1

LIMK1 = LIMK1 (Homo sapiens, UniProt P53667); settings: duplicate measurements, Km ATP; read-out: % Enzyme Activity (relative to DMSO controls) / TP-0005801 (0.3µM) / Data 1
Outline: as §1

MAPKAPK5/PRAK = MAPKAPK5/PRAK (Homo sapiens, UniProt Q8IW41); settings: duplicate measurements, Km ATP
Outline: as §1

MEK3 = biological target: T3, MEK3 (Homo sapiens, UniProt P46734); settings: duplicate measurements, Km ATP
T3 construct: gene MAP2K3
Outline: as §1

MEKK1 = biological target: T4, MEKK1 (Homo sapiens, UniProt Q13233); settings: duplicate measurements, Km ATP
T4 construct: gene MAP3K1
Outline: as §1

MSSK1/STK23 = biological target: T5, MSSK1/STK23 (Homo sapiens, UniProt Q9UPE1); settings: duplicate measurements, Km ATP
T5 construct: gene SRPK3
Outline: as §1

PIM1 = PIM1 (Homo sapiens, UniProt P11309); settings: duplicate measurements, Km ATP
Outline: as §1

RIPK5 = biological target: T6, RIPK5 (Homo sapiens, UniProt Q6XUX3); settings: duplicate measurements, Km ATP
T6 construct: gene DSTYK
Outline: as §1

STK22D/TSSK1 = biological target: T7, STK22D/TSSK1 (Homo sapiens, UniProt Q9BXA7); settings: duplicate measurements, Km ATP
T7 construct: gene TSSK1B
Outline: as §1

TAK1 = biological target: T8, TAK1 (Homo sapiens, UniProt O43318); settings: duplicate measurements, Km ATP
T8 construct: gene MAP3K7
Outline: as §1

ZAK/MLTK = biological target: T9, ZAK/MLTK (Homo sapiens, UniProt Q9NYL2); settings: duplicate measurements, Km ATP
T9 construct: gene MAP3K20
Outline: as §1

[1] = read-out: % Enzyme Activity (relative to DMSO controls) / TP-0005801 (0.3µM) / Data 1
[2] = read-out: % Enzyme Activity (relative to DMSO controls) / TP-0005801 (0.3µM) / Data 2

T3 sequence (P46734 whole entry): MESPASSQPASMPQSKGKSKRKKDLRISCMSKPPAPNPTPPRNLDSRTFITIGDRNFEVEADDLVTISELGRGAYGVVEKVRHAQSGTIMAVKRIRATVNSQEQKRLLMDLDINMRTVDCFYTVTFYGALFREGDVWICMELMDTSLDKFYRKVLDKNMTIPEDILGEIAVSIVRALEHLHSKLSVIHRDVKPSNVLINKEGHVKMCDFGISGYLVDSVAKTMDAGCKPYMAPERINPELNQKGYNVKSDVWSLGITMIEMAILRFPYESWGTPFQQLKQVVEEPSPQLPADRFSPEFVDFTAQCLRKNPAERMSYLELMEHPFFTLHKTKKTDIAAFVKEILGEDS
Sequence of MAPKAPK5/PRAK (Q8IW41 whole entry): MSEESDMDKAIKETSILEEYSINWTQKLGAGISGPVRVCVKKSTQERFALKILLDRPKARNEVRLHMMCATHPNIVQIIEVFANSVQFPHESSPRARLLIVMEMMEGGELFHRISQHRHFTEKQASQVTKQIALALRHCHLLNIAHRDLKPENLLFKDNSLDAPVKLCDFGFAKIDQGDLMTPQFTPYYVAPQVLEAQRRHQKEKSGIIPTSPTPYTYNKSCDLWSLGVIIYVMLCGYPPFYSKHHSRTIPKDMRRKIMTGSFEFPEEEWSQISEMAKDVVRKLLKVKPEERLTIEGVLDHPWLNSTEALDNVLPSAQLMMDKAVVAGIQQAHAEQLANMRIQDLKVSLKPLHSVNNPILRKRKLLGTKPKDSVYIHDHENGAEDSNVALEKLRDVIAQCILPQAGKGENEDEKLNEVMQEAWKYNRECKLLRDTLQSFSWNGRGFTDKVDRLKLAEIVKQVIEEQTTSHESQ
Sequence of LCK (P06239 whole entry): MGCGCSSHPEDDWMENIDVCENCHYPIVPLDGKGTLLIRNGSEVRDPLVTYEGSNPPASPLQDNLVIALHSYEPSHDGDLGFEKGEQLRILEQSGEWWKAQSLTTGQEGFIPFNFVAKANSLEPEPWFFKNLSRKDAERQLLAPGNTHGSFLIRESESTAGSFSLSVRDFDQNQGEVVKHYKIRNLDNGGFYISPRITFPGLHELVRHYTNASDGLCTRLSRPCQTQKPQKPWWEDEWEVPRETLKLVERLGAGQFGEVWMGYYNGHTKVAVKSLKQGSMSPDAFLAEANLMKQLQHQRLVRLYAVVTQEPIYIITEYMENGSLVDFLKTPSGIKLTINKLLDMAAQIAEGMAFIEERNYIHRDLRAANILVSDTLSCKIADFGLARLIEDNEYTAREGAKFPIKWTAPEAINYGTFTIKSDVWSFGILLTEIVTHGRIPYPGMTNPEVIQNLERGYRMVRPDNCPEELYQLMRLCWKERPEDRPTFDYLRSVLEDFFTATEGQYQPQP
T2 sequence (P45984 whole entry): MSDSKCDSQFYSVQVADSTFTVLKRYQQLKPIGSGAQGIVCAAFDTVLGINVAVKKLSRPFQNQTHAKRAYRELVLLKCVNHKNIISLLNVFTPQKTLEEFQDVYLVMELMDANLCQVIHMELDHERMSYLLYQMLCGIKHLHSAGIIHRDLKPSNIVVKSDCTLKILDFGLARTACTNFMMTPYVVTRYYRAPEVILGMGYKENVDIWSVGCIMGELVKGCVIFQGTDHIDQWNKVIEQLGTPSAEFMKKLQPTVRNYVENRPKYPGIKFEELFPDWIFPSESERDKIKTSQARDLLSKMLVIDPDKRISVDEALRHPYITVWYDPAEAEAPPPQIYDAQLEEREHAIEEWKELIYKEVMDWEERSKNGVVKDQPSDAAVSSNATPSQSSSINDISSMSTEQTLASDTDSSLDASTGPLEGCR
T6 sequence (Q6XUX3 whole entry): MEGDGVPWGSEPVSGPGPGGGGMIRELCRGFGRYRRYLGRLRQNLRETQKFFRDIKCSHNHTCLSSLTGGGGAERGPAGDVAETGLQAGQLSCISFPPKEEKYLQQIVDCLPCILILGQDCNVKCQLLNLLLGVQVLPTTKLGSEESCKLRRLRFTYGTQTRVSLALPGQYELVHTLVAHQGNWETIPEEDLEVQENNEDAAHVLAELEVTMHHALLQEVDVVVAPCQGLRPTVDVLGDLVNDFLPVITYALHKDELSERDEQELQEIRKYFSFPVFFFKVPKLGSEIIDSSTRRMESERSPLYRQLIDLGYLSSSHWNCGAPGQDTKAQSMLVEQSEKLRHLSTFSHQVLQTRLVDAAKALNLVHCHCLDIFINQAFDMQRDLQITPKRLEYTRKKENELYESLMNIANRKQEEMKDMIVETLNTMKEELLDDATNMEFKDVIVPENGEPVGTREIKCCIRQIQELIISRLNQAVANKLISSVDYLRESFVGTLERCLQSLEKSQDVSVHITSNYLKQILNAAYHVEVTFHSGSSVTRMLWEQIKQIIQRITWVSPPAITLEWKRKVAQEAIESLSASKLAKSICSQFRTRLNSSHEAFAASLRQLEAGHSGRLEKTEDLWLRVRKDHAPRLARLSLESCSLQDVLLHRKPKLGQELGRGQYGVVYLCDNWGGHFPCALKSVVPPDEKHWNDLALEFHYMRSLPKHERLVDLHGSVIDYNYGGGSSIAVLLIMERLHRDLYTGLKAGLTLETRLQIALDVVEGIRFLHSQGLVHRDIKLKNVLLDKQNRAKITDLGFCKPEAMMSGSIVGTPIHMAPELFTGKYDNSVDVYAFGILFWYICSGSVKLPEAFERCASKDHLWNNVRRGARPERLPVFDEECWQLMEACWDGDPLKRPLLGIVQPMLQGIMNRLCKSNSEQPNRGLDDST
Sequence of ERK5/MAPK7 (Q13164 whole entry): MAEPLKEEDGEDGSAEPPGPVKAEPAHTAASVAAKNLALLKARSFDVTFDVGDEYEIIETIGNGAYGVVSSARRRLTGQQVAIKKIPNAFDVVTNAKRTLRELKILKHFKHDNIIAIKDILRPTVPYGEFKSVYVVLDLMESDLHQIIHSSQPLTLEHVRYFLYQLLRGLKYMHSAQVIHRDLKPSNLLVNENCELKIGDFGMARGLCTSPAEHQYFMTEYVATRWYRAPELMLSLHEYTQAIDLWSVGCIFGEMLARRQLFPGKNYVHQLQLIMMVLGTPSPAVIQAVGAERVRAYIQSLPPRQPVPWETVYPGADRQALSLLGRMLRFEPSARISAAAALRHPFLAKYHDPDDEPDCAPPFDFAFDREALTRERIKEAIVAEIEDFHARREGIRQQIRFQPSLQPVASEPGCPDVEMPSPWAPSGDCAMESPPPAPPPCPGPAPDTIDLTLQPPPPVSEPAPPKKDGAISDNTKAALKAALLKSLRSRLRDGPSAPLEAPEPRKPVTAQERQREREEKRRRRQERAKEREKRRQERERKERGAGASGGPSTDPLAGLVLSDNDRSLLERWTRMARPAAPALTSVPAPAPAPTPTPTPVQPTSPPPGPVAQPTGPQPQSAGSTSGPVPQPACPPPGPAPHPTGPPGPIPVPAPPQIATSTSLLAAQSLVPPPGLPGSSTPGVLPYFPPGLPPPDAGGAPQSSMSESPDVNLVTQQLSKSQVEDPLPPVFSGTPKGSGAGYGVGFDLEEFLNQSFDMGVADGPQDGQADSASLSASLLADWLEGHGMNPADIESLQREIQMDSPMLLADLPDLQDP
Sequence of EPHA4 (P54764 whole entry): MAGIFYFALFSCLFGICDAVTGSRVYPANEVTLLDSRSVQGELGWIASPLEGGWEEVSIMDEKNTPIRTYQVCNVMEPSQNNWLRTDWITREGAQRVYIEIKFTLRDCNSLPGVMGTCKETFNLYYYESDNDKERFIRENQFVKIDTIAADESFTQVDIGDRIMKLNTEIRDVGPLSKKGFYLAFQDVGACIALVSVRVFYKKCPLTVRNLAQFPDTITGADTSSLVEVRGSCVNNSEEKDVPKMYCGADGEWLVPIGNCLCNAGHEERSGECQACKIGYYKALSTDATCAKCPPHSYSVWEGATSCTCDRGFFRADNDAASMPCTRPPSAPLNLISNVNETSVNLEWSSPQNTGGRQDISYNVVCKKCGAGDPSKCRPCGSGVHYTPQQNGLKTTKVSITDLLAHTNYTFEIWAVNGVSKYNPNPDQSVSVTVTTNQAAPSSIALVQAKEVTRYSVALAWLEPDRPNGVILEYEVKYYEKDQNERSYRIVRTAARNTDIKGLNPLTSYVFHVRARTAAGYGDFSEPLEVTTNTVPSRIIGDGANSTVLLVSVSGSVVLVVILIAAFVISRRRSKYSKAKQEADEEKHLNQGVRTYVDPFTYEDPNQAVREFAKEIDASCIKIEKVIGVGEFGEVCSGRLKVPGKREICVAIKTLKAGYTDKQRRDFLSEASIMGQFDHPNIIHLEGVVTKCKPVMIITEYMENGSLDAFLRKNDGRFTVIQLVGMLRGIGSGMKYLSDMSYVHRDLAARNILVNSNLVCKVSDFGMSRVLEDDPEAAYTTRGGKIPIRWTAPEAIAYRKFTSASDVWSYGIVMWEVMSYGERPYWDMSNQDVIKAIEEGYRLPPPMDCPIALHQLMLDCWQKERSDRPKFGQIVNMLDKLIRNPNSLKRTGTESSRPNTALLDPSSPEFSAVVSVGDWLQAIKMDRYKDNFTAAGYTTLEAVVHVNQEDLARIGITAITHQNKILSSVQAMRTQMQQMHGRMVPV
T7 sequence (Q9BXA7 whole entry): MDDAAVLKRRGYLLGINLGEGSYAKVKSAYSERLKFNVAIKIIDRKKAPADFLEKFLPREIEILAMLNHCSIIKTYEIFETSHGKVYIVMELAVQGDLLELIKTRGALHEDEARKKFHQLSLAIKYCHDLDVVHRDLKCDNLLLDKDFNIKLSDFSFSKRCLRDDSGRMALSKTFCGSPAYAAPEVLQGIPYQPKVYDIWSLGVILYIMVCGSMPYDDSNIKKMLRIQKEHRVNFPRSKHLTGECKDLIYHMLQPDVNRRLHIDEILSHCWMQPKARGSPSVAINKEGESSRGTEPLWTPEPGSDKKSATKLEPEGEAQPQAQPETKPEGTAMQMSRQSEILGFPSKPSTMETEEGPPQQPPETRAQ

remaining activity at 0.3 µM (ALK4/ACVR1B; [1]): 86.9%
remaining activity at 0.3 µM (ALK4/ACVR1B; [2]): 85%
remaining activity at 0.3 µM (CAMKK2; [1]): 31.9%
remaining activity at 0.3 µM (CAMKK2; [2]): 30.2%
remaining activity at 0.3 µM (CSK; [1]): 92.6%
remaining activity at 0.3 µM (CSK; [2]): 89.8%
remaining activity at 0.3 µM (DMPK2): 109%
remaining activity at 0.3 µM (EPHA4; [1]): 98.9%
remaining activity at 0.3 µM (EPHA4; [2]): 98.5%
remaining activity at 0.3 µM (ERK5/MAPK7; [1]): 91.6%
remaining activity at 0.3 µM (ERK5/MAPK7; [2]): 90.9%
remaining activity at 0.3 µM (IRAK4; [1]): 90.6%
remaining activity at 0.3 µM (IRAK4; [2]): 89.2%
remaining activity at 0.3 µM (JNK2; [1]): 97%
remaining activity at 0.3 µM (JNK2; [2]): 96.3%
remaining activity at 0.3 µM (KSR1; [1]): 99.2%
remaining activity at 0.3 µM (KSR1; [2]): 97.6%
remaining activity at 0.3 µM (LCK; [1]): 101%
remaining activity at 0.3 µM (LCK; [2]): 99.4%
remaining activity at 0.3 µM (LIMK1): 104%
remaining activity at 0.3 µM (MAPKAPK5/PRAK; [1]): 116%
remaining activity at 0.3 µM (MAPKAPK5/PRAK; [2]): 107%
remaining activity at 0.3 µM (MEK3; [1]): 174%
remaining activity at 0.3 µM (MEK3; [2]): 173%
remaining activity at 0.3 µM (MEKK1; [1]): 111%
remaining activity at 0.3 µM (MEKK1; [2]): 109%
remaining activity at 0.3 µM (MSSK1/STK23; [1]): 89.7%
remaining activity at 0.3 µM (MSSK1/STK23; [2]): 88.8%
remaining activity at 0.3 µM (PIM1; [1]): 93.2%
remaining activity at 0.3 µM (PIM1; [2]): 92.8%
remaining activity at 0.3 µM (RIPK5; [1]): 108%
remaining activity at 0.3 µM (RIPK5; [2]): 101%
remaining activity at 0.3 µM (STK22D/TSSK1; [1]): 10.4%
remaining activity at 0.3 µM (STK22D/TSSK1; [2]): 8.14%
remaining activity at 0.3 µM (TAK1; [1]): 103%
remaining activity at 0.3 µM (TAK1; [2]): 102%
remaining activity at 0.3 µM (ZAK/MLTK; [1]): 103%
remaining activity at 0.3 µM (ZAK/MLTK; [2]): 101%
Structure (SMILES): COc1cc(N2CCN(C)CC2)c(C)cc1Nc1ncc(Br)c(Nc2cccnc2N(C)C)n1 [TP-5801]
